# Experimental data reported in patent US8008258B2, “Cop 1 for treatment of inflammatory bowel diseases” (Yeda Research and Development Co. Ltd., priority 2003, dated 2011).
# Legend:
# [1] = test system: TGF-β secretion by spleen and MLN cells; assay: TGF-β secretion by spleen and MLN cells (ELISA); format: cell-based; conditions: colitis-induced BALB/c mice treated with GA; anti-CD3 stimulation
# Method: FIGS. 6A-6B show the effect of GA treatment on TGF-β secretion by lymphocytes of TNBS-induced BALB/c mice. Cells of spleen or mesenteric lymph nodes (MLN) from normal mice, colitis-induced mice, and colitis-induced mice treated with GA were cultured either with GA (50 μg/ml) (FIG. 6A) or immobilized anti-CD3 (5 μg/ml) (FIG. 6B). After 72 hours, supernatants from six culture wells were pooled and TGF-β was measured by ELISA in duplicates. Results are expressed as TGF-β concentration (pg/ml±1 SD) and represent one of two similar experiments, using pooled cells from 3-5 mice in each group. # Indicates significant decrease in TGF-β in colitic mice in comparison to normal mice. * Indicates significant increase in TGF-β induced by GA treatment in comparison to untreated colitis induced mice.
# Reactivity assays. Spleens and mesenteric lymph nodes (MLN) cells (0.5×10^6 cell/well) were cultured with either GA (50 μg/ml), colon extract (200 μg/ml), immobilized anti-CD3 (5 μg/ml), or PBS control, in a final volume of 250 μl/well (6 wells for each antigen). For proliferation assay, cells were cultured in RPMI 1640 with 10% FCS, pulsed with 1 μCi of [3H] thymidine after 48 h incubation, and harvested 12 h later. […]
# [2] = test system: mesenteric lymph nodes (MLN) cells; assay: Lymphocyte proliferation (thymidine incorporation) in response to colonic extract, cells from colitis-induced mice; format: cell-based
# Method: FIGS. 4A-4F show the effect of GA on the lymphocyte proliferation in different mouse strains. The responses of normal mice, colitis-induced mice, and colitis-induced mice treated with GA orally or parenterally daily are compared in the BALB/c (FIGS. 4A, 4B), (SJL/JxBALB/c)F1 (FIGS. 4C, 4D), and SJL/J (FIGS. 4E, 4F) strains. Cells from spleens (FIGS. 4A, 4C, 4E) and mesenteric lymph nodes (MLN) (FIGS. 4B, 4D, 4F) were cultured, 7 days after disease induction, with no antigen, colonic extract (CE, 200 μg/ml), or GA (50 μg/ml). Results of thymidine incorporation are expressed as mean cpm±ISD of six culture wells and represent one of two similar experiments, using pooled cells from 3-5 mice in each group. # Indicates significant increase in the response to CE by colitic mice. * Indicates significant decrease in the response to CE induced by GA treatment.
# Colon extract. Colons of syngeneic normal mice were cut into small strips and homogenized. The homogenate was diluted in PBS and passed through glass wool. Protein quantity was measured by using a protein assay kit (Bio-Rad, Richmond, Calif.).
# Reactivity assays. Spleens and mesenteric lymph nodes (MLN) cells (0.5×10^6 cell/well) were cultured with either GA (50 μg/ml), colon extract (200 μg/ml), immobilized anti-CD3 (5 μg/ml), or PBS control, in a final volume of 250 μl/well (6 wells for each antigen). For proliferation assay, cells were cultured in RPMI 1640 with 10% FCS, pulsed with 1 μCi of [3H] thymidine after 48 h incubation, and harvested 12 h later. For cytokine (TNF-α and TGF-β) assay, cells were cultured in serum-free medium (DCCM-1), supernatants were collected after 72 h, and tested for the cytokines by ELISA using mAbs pairs (R&D Systems, Minneapollis, Minn.) according to the manufacturer's instruction.
substance,measurement,setting,value
glatiramer acetate [GA],TGF-β secretion in the MLN relative to the secretion of normal mice,[1],2.2 folds
same,Inhibition of the MLN proliferation response to colonic extract by GA treatment,[2]; MLN from (SJL/JxBALB/c)F1 mice treated either orally or parenterally with GA,complete inhibition
same,Inhibition of the local MLN proliferation response to colonic extract by GA treatment,"[2]; MLN from BALB/c, colonic extract 200 μg/ml, 7 days after disease induction",66%
same,Inhibition of the MLN proliferation response to colonic extract by GA treatment,[2]; MLN from SJL/J mice treated either orally or parenterally with GA,complete inhibition
